Data from US20240246968A1, “SMALL MOLECULE INHIBITORS OF KRAS G12C MUTANT” (Merck Sharp & Dohme LLC, priority 2021, published 2024).
pIC50: −log10 of the molar value. Values belong to the compound of their own block, whether it stands above or below them.

How the values were obtained:
[1] = target: Gppcp-bound recombinant K-Ras4B G12C mutant protein (amino acids 1-169, C51S/C80L/C118S) (Homo sapiens, UniProt P01116, C118S/C51S/C80L/G12C); assay: KRASG12C binding assay (LC-MS, compound binding rate); details: test compound final concentration 0.5 μM, 25° C., 1 hour
Outline: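 Gppcp-bound K-Ras4B G12C (1-169; C51S/C80L/C118S), 50 nM in TBS with 0.1 mM TCEP, 0.25 mM MgCl2, 50 μM Gppcp, exposed to compound at 0.5 μM final for 1 h at 25 °C. Quenched with formic acid and analysed by intact-protein ESI LC-MS. Binding rate is the mono-adduct signal over total KRAS signal; graded A (≥80%) to E (<20%).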

[2] = target: T1, interaction between recombinant K-Ras4B G12C mutant protein and cRAF RAS-binding domain (cRAF-RBD) (Homo sapiens, UniProt P01116, G12C); assay: Inhibitory activity on interaction between KRAS G12C and cRAF (Alpha technology); assay type: biochemical; details: GMPPNP-bound KRAS G12C incubated with compound at 25° C. for 1 hour, then cRAF-RBD; Alpha signal
T1 construct: made in house; host or cells: E. coli
Outline: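 GMPPNP-loaded His-tagged KRAS G12C (aa 1-169, E. coli) preincubated with compound 1 h at 25° C in Tris pH 7.5, 100 mM NaCl, 1 mM MgCl2, TCEP, 0.1% Tween 20; cRAF-RBD (aa 50-132) added, 1.5 h RT, Alpha signal read. DMSO = 0%, GDP-bound KRAS = 100% inhibition; IC50 from dose titration fit.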

MIA PaCa-2 cells = assay: Growth inhibition activity on KRAS-G12C mutant cell line (MIA PaCa-2), CellTiter-Glo 3D; assay type: cell-based, human; details: Homo sapiens, MIA PaCa-2, 72 h, MIA PaCa-2, 3-day culture with compound
Outline: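 Cells in RPMI1640 with 10% FBS were seeded in U-bottom plates and cultured 1 day at 37 °C, 5% CO2, then exposed to compound (0.2% DMSO final) for 3 more days. Viability read by CellTiter-Glo 3D luminescence; IC50 from growth inhibition relative to untreated wells.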

SMILES: Cc1nc2cc(-c3cccn4c(C(=O)c5cc(F)c(NC(=O)/C=C/CNC(C)(C)C)c(F)c5)ccc34)c(C(F)(F)F)cc2n1C [Example 25, (E)-4-(tert-butylamino)-N-(4-(8-(1,2-dimethyl-6-(trifluoromethyl)-1H-benzo[d]imidazol-5-yl)indolizine-3-carbonyl)-2,6-difluorophenyl)but-2-enamide]
- binding rate [1]: A (A binding rate of 80% or more is rated “A”)
- pIC50 [2]: 7.10
- pIC50 (MIA PaCa-2 cells): 7.00

SMILES: Cc1cc2c(ncn2C)c(C)c1-c1cccn2c(C(=O)c3cc(F)c(NC(=O)/C=C/CNC(C)(C)C)c(F)c3)ccc12 [Example 29, (E)-4-(tert-butylamino)-N-(2,6-difluoro-4-(8-(1,4,6-trimethyl-1H-benzo[d]imidazol-5-vi)indolizine-3-carbonyl)phenyl)but-2-enamide]
- binding rate [1]: A (A binding rate of 80% or more is rated “A”)
- pIC50 [2]: 7.05
- pIC50 (MIA PaCa-2 cells): 6.92

SMILES: CO[C@H]1CC[C@H](NC/C=C/C(=O)Nc2c(F)cc(C(=O)c3ccc4c(-c5c(C#N)cc6c(nc(C)n6C)c5Cl)cccn34)cc2F)CC1 [Example 37, (E)-N-(4-(8-(4-chloro-6-cyano-1,2-dimethyl-1H-benzo[d]imidazol-5-yl)indolizine-3-carbonyl)-2,6-difluorophenyl)-4-(((1r,4r)-4-methoxycyclohexyl)amino)but-2-enamide]
- binding rate [1]: A (A binding rate of 80% or more is rated “A”)
- pIC50 [2]: 7.06
- pIC50 (MIA PaCa-2 cells): 6.62

SMILES: CO[C@H]1CC[C@H](NC/C=C/C(=O)Nc2c(F)cc(C(=O)c3ccc4c(-c5c(C6CC6)cc6c(nc(C)n6C)c5Cl)cccn34)cc2F)CC1 [Example 38]
- binding rate [1]: A (A binding rate of 80% or more is rated “A”)
- pIC50 [2]: 7.11
- pIC50 (MIA PaCa-2 cells): 7.11

Further lines, with some results ahead:

- pIC50 [2]: 7.64
- pIC50 (MIA PaCa-2 cells): 6.28
SMILES: CO[C@H]1CC[C@H](NC/C=C/C(=O)Nc2c(F)cc(C(=O)c3ccc4c(-c5cc6ncn(C)c6cc5O)cccn34)cc2F)CC1 [Example 23, (E)-N-(2,6-difluoro-4-(8-(6-hydroxy-1-methyl-1H-benzo[d]imidazol-5-yl)indolizine-3-carbonyl)phenyl)-4-(((1r,4r)-4-methoxycyclohexyl)amino)but-2-enamide]
- binding rate [1]: A (A binding rate of 80% or more is rated “A”)

- pIC50 [2]: 7.27
- pIC50 (MIA PaCa-2 cells): 7.27
SMILES: Cc1nc2cc(-c3cccn4c(C(=O)c5cc(F)c(NC(=O)/C=C/CNC6CCOCC6)c(F)c5)ccc34)c(C(F)(F)F)cc2n1C [Example 24, (E)-N-(4-(8(1,2-dimethyl-6-(trifluoromethyl)-1H-benzo[d]imidazol-5-yl)indolizine-3-carbonyl)-2,6-difluorophenyl)-4-((tetrahydro-2H-pyran-4-yl)amino)but-2-enamide]
- binding rate [1]: A (A binding rate of 80% or more is rated “A”)

- pIC50 [2]: 7.21
- pIC50 (MIA PaCa-2 cells): 7.09
SMILES: Cc1nc2cc(-c3cccn4c(C(=O)c5cc(F)c(NC(=O)/C=C/CNC6(C)CCOCC6)c(F)c5)ccc34)c(C(F)(F)F)cc2n1C [Example 26]
- binding rate [1]: A (A binding rate of 80% or more is rated “A”)

- pIC50 [2]: 7.21
- pIC50 (MIA PaCa-2 cells): 7.19
SMILES: CO[C@H]1CC[C@H](NC/C=C/C(=O)Nc2c(F)cc(C(=O)c3ccc4c(-c5c(Br)cc6c(nc(C)n6C)c5Cl)cccn34)cc2F)CC1 [Example 31, (E)-N-(4-(8(6-bromo-4-chloro-1,2-dimethyl-1H-benzo[d]imidazol-5-yl)indolizine-3-carbonyl)-2,6-difluorophenyl)-4-(((1r,4r)-4-methoxycyclohexyl)amino)but-2-enamide]
- binding rate [1]: A (A binding rate of 80% or more is rated “A”)

- pIC50 [2]: 7.12
- pIC50 (MIA PaCa-2 cells): 6.85
SMILES: COc1nc2c(cc1-c1cccn3c(C(=O)c4cc(F)c(NC(=O)/C=C/CN[C@H]5CC[C@H](OC)CC5)c(F)c4)ccc13)nc(C)n2C [Example 33, (E)-N-(2,6-difluoro-4-(8-(5-methoxy-2,3-dimethyl-3H-imidazo[4,5-b]pyridin-6-yl)indolizine-3-carbonyl)phenyl)-4-(((1r,4r)-4-methoxycyclohexyl)amino)but-2-enamide]
- binding rate [1]: A (A binding rate of 80% or more is rated “A”)
